According to ChEMBL document CHEMBL4507319 (2021):

Legend:
Settings in all cases: Compound concentration 1.0 uM
[1] = molecular target: T1, Serine/threonine-protein kinase BRSK2 (Homo sapiens) (UniProt Q8IWQ3); assay: BrSK2(h) Eurofins kinase panel
T1 sequence (whole entry): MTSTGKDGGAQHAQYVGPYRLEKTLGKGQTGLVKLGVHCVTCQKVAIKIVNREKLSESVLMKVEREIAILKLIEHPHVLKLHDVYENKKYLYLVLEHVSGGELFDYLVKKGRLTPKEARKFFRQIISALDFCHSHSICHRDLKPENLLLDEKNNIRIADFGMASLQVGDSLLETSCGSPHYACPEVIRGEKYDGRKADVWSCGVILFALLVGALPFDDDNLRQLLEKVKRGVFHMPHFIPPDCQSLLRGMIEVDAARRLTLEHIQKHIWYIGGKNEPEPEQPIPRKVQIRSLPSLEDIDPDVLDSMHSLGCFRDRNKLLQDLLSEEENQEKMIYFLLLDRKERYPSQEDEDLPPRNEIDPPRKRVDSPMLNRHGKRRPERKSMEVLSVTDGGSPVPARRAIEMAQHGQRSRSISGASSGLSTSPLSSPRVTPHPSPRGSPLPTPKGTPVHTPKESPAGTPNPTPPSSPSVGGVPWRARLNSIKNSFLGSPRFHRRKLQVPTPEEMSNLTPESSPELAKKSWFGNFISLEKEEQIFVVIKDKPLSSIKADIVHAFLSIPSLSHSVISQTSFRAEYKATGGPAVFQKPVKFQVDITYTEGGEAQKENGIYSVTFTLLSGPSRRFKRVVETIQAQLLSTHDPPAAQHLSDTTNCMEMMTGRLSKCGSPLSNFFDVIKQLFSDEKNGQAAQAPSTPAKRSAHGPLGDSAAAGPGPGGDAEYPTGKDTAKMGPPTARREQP

[2] = molecular target: Serine/threonine-protein kinase B-raf (Homo sapiens) (UniProt P15056); assay: B-Raf(h) Eurofins kinase panel
Chain of Serine/threonine-protein kinase B-raf (Homo sapiens) (P15056 whole entry): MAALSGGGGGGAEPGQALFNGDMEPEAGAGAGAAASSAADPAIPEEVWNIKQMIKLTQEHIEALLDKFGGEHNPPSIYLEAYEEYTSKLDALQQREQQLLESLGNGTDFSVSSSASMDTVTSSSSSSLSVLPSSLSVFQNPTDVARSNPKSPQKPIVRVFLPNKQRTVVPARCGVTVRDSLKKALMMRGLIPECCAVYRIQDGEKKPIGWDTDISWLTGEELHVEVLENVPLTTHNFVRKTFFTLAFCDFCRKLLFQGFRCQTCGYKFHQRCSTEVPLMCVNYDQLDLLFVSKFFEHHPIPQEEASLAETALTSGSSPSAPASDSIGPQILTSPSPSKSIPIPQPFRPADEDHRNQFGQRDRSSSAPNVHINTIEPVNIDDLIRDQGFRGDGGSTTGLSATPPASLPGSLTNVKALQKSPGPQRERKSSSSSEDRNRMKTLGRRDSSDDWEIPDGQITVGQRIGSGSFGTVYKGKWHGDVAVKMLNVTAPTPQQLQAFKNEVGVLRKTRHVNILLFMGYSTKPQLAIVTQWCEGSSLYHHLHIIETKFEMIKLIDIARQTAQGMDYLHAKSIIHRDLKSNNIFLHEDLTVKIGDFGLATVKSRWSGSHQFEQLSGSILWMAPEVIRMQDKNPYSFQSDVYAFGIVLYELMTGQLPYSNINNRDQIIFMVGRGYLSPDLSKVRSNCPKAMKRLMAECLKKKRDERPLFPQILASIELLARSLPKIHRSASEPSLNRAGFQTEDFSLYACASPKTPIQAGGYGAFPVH

[3] = molecular target: Serine/threonine-protein kinase Chk2 (Homo sapiens) (UniProt O96017); assay: CHK2(h) Eurofins kinase panel
Chain of Serine/threonine-protein kinase Chk2 (Homo sapiens) (O96017 whole entry): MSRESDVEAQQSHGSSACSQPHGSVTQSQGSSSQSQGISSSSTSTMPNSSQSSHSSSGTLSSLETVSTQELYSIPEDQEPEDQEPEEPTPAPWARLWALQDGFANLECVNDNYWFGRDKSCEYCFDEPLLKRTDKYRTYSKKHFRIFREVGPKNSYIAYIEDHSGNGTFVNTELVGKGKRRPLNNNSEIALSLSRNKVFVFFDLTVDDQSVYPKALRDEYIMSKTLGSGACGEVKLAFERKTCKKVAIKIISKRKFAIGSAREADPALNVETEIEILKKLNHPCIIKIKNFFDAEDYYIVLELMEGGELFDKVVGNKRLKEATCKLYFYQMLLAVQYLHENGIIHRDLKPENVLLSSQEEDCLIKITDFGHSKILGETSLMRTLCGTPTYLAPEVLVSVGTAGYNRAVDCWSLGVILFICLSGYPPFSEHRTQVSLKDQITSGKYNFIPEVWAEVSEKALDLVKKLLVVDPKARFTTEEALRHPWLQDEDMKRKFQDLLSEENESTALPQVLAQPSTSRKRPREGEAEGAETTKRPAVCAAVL

[4] = species: Homo sapiens; assay: CK2(h) Eurofins kinase panel
[5] = molecular target: Eukaryotic elongation factor 2 kinase (Homo sapiens) (UniProt O00418); assay: eEF-2K(h) Eurofins kinase panel
[6] = molecular target: T2, Ephrin type-B receptor 1 (Homo sapiens) (UniProt P54762); assay: EphB1(h) Eurofins kinase panel
T2 sequence (whole entry): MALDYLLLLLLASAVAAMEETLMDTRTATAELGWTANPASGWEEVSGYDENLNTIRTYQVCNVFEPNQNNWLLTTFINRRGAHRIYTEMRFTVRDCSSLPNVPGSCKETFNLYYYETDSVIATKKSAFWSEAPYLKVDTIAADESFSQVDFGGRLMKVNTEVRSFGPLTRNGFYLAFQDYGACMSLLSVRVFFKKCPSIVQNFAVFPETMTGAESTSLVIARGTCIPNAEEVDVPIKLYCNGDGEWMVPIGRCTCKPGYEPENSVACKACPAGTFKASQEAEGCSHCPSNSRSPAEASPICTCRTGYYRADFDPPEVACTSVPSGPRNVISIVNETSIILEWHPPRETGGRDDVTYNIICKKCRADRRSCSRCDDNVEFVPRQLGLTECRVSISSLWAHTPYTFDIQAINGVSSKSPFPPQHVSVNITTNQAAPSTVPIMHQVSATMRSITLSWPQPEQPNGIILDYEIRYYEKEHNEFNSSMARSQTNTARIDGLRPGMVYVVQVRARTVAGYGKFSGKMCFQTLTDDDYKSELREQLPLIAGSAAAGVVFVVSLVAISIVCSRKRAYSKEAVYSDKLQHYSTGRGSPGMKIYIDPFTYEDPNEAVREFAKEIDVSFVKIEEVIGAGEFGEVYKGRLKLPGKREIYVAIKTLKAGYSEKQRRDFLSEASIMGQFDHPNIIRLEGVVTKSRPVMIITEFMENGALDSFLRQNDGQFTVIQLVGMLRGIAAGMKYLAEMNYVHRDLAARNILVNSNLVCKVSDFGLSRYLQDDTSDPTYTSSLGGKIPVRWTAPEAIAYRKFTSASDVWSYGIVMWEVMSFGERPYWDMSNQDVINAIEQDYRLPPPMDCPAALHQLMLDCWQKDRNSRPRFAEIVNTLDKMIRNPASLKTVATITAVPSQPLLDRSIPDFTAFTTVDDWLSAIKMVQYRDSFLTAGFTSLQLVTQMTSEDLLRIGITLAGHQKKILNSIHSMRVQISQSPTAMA

[7] = molecular target: T3, Ephrin type-B receptor 3 (Homo sapiens) (UniProt P54753); assay: EphB3(h) Eurofins kinase panel
T3 sequence (whole entry): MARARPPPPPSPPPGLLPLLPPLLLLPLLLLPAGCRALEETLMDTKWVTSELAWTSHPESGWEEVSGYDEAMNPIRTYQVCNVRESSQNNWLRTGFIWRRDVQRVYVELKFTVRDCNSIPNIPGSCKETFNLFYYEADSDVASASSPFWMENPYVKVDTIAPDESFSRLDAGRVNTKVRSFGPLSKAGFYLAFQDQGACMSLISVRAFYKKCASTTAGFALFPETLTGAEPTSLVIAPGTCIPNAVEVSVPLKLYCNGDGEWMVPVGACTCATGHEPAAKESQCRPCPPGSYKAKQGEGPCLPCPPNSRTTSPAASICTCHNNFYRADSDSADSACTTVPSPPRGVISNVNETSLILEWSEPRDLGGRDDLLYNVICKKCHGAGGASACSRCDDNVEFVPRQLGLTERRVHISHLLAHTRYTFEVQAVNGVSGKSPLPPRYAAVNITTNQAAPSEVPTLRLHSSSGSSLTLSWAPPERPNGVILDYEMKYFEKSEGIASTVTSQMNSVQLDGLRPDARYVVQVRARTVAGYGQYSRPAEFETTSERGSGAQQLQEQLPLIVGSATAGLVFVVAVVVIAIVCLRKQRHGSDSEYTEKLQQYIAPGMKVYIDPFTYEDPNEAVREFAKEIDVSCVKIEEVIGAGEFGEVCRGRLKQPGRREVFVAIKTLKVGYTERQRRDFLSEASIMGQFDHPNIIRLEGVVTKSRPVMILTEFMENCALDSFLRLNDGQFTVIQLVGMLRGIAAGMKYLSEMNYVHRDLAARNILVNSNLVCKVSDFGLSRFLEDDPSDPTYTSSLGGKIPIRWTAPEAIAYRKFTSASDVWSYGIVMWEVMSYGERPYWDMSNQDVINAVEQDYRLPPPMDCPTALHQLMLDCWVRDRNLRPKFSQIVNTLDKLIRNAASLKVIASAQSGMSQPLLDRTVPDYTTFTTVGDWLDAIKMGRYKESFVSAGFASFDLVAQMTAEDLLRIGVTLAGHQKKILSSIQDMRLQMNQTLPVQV

[8] = molecular target: Vascular endothelial growth factor receptor 1 (Homo sapiens) (UniProt P17948); assay: Flt1(h) Eurofins kinase panel
Chain of Vascular endothelial growth factor receptor 1 (Homo sapiens) (P17948 whole entry): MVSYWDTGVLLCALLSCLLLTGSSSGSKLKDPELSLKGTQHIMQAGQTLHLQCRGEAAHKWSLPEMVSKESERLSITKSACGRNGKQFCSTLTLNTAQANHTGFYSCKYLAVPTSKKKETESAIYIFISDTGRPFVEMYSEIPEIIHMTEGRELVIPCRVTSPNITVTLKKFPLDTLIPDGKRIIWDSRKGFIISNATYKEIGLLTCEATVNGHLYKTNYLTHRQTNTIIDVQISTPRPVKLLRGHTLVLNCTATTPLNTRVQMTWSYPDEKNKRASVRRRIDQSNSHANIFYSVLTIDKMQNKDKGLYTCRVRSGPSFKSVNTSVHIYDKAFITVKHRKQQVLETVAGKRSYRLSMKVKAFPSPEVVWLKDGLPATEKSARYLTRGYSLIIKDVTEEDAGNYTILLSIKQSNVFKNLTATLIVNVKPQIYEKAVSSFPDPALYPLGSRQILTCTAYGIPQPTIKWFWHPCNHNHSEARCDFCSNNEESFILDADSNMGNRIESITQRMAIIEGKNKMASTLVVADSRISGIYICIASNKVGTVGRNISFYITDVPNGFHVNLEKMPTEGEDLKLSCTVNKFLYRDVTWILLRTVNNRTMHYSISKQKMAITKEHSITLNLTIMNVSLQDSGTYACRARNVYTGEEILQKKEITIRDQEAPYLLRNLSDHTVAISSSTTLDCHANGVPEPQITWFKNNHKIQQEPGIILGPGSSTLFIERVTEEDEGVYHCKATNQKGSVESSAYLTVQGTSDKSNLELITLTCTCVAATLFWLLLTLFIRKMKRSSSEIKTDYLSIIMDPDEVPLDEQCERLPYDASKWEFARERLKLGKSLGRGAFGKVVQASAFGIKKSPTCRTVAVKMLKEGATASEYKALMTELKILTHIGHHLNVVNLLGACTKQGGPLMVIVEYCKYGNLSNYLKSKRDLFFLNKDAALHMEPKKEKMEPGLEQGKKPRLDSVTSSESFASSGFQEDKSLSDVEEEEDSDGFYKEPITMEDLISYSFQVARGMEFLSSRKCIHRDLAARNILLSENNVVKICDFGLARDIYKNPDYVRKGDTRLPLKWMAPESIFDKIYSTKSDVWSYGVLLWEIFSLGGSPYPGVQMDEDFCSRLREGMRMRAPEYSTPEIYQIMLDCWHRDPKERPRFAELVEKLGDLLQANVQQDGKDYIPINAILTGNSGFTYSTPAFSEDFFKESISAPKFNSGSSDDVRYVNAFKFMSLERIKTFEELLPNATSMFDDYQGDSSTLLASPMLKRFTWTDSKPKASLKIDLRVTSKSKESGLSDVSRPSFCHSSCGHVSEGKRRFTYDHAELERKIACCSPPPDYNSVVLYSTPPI

[9] = molecular target: Insulin receptor (Homo sapiens) (UniProt P06213); assay: IR(h), activated Eurofins kinase panel
Chain of Insulin receptor (Homo sapiens) (P06213 28-758 limits assumed): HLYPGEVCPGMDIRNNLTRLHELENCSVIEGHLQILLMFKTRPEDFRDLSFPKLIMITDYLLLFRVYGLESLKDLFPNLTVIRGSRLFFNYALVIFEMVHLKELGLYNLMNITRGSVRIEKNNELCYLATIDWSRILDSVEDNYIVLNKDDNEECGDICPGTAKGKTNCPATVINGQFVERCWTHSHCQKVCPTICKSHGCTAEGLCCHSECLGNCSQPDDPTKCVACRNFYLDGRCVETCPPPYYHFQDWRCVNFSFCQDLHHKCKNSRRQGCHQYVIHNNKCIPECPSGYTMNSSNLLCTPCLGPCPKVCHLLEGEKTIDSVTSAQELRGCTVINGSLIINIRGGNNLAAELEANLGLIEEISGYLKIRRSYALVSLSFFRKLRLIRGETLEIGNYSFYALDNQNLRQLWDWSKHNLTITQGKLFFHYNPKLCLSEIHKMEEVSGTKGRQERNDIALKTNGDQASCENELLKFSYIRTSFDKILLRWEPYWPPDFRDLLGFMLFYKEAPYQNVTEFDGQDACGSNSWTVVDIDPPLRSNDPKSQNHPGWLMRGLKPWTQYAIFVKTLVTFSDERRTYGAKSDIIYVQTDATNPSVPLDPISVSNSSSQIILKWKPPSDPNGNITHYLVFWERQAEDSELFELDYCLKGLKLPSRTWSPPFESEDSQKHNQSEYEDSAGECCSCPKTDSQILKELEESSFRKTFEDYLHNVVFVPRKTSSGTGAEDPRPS
Chain of Insulin receptor (Homo sapiens) (P06213 763-1382 limits assumed): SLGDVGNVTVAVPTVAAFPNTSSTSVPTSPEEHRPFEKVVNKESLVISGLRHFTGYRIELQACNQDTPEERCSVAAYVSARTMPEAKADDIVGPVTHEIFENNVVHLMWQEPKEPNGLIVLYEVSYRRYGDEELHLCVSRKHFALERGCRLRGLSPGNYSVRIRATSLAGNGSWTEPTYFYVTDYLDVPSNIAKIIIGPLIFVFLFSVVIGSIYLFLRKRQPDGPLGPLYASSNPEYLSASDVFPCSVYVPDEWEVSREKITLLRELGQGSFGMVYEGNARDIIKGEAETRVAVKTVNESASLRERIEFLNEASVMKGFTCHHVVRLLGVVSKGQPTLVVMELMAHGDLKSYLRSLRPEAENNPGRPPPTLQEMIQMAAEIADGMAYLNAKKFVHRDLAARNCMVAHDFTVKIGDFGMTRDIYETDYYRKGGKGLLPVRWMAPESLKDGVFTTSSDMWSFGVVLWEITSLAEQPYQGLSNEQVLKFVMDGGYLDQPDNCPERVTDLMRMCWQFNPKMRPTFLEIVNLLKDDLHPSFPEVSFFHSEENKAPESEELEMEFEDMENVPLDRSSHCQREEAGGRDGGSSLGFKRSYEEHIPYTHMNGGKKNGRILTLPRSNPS

[10] = molecular target: Protein kinase C beta type (Homo sapiens) (UniProt P05771); assay: PKCbetaI (h) Eurofins kinase panel
Chain of Protein kinase C beta type (Homo sapiens) (P05771 2-671 limits assumed): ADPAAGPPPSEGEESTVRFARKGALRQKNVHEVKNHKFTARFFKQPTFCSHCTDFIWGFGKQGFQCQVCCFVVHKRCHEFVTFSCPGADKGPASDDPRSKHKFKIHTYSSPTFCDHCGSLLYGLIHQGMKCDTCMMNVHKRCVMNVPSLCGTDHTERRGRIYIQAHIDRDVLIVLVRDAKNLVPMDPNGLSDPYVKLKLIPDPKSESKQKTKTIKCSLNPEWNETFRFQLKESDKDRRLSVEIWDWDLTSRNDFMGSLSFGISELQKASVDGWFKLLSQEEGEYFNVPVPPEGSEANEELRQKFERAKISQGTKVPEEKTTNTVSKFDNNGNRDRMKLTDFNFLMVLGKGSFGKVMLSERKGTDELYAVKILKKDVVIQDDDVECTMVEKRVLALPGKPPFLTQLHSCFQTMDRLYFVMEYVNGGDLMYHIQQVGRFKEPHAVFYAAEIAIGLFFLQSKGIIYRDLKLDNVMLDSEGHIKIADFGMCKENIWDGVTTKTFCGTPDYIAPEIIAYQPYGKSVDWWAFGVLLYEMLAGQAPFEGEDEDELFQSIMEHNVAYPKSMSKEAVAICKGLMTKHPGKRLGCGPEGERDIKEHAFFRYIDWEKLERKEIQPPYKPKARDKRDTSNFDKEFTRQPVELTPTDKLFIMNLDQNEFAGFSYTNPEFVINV

Measured: % residual kinase activity

CCc1ccccc1C(=O)Nc1n[nH]c2c(C)c(F)c(C3C(C#N)=C(C)N(C)C(C)=C3C#N)cc12 [BAY-3827]
inactive: [1] 34% | [2] 99% | [3] 100% | [4] 94% | [5] 141% | [6] 96% | [7] 109% | [8] 96% | [9] 89% | [10] 55%
